Source: ChEMBL document CHEMBL6109128, “Copper-KRAS-COX2 Axis: A Therapeutic Vulnerability in Pancreatic Cancer” (J Med Chem, 2025)
The source made the active and inactive calls. The rule behind the calls is not given here.

Assays:
MIA PaCa-2 [1] = assay: Cytotoxicity against human MIA PaCa-2 cells by MTT assay; type: functional, cell-based
[2] = Metabolic stability in human liver microsome assessed as half life measured up to 60 mins by LC-MS/MS analysis; type: ADME; conditions: liver microsomes
[3] = Metabolic stability in mouse liver microsome assessed as half life measured up to 60 mins by LC-MS/MS analysis; type: ADME; conditions: liver microsomes
PANC-1 = assay: Cytotoxicity against human PANC-1 cells by MTT assay; type: functional, cell-based
HCT-116 = assay: Cytotoxicity against human HCT-116 cells assessed as cell death up to 1 uM incubated for 6 days in presence of NAC; type: functional, cell-based; conditions: time 6.0 day
[4] = Cytotoxicity against mouse KPC2 cells by MTT assay; type: functional, cell-based
Panc02 = assay: Cytotoxicity against mouse Panc02 cells by MTT assay; type: functional, cell-based
BXPC-3 = assay: Cytotoxicity against human BXPC-3 cells by MTT assay; type: functional, cell-based
SU.86.86 = assay: Cytotoxicity against human SU-86-86 cells by MTT assay; type: functional, cell-based
MIA PaCa-2 [5] = assay: Cytotoxicity against human MIA PaCa-2 cells assessed as cell death up to 0.1 uM incubated for 6 days in presence of NAC; type: functional, cell-based; conditions: time 6.0 day
[6] = Toxicity in C57BL/6 mouse assessed as body weight loss at 20 to 40 mg/kg, ip administered for 28 days; type: organism-based; conditions: in vivo, 672 h, dose 20-40 mg/kg, time 28 day
[7] = Drug metabolism in mouse plasma assessed as retention time measured after 1 hr by LC-MS/MS analysis; type: ADME, cell-free
[8] = Drug metabolism in mouse plasma assessed as 6-fluoro-8-isocyanatoquinoline metabolite formation by measuring Retention time measured after 1 hr by LC-MS/MS analysis; type: ADME, cell-free
[9] = Drug metabolism in mouse plasma assessed as 6-fluoroquinolin-8-amine metabolite formation by measuring Retention time measured after 1 hr by LC-MS/MS analysis; type: ADME, cell-free
[10] = Drug metabolism in mouse plasma assessed as 5-(5-methyl-2,5-diazabicyclo[2.2.1]hept-3-en-2-yl)pyrazine-2-carbaldehyde metabolite formation by measuring Retention time measured after 1 hr by LC-MS/MS analysis; type: ADME, cell-free
[11] = Drug metabolism in mouse plasma assessed as 5-(5-((6-fluoroquinolin-8-yl)carbamoyl)pyrazin-2-yl)-2-methyl-2,5-diazabicyclo[2.2.1]heptane 2-oxide metabolite formation by measuring Retention time measured after 1 hr by LC-MS/MS analysis; type: ADME, cell-free
[12] = Drug metabolism in mouse plasma assessed as 5-(2,5-diazabicyclo[2.2.1]heptan-2-yl)-N-(6-fluoroquinolin-8-yl)pyrazine-2-carboxamide metabolite formation by measuring Retention time measured after 1 hr by LC-MS/MS analysis; type: ADME, cell-free

Compound | IC50 (MIA PaCa-2 [1]) [nM] | also measured
O=C(Nc1cc(F)cc2cccnc12)c1cnc(N2CCn3c(nnc3C(F)(F)F)C2)cn1 | 4100 | –
CN1CCN(c2cnc(C(=O)Nc3cccc4ccccc34)cn2)CC1 | > 30000 | –
O=C(Nc1cc(F)cc2cccnc12)c1cnc(N2CC3CC2CO3)cn1 (configuration not stated) | 900 | –
O=C(Nc1cc(F)cc2cccnc12)c1cnc(N2CCNC(C(F)(F)F)C2)cn1 (configuration not stated) | 800 | –
NC1CC2(CCN(c3cnc(C(=O)Nc4cc(F)cc5cccnc45)cn3)CC2)C1 | 3000 | –
O=C(Nc1cc(F)cc2cccnc12)c1cnc(N2C[C@@H](O)CC2=O)cn1 | 4700 | –
O=C(Nc1cc(F)cc2cccnc12)c1cnc(N2CCNCC2)cn1 | 400 | half-life [2]: > 60 min; half-life [3]: 1.8 min
O=C(Nc1cc(F)cc2cccnc12)c1cnc(N2CC3C(C2)C3(F)F)cn1 (configuration not stated) | 5400 | –
Cc1cc(NC(=O)c2cnc(N3C[C@@H]4[C@@H](N)[C@@H]4C3)cn2)c2ncccc2c1 | 500 | half-life [3]: > 60 min
NC1CC2(C1)CN(c1cnc(C(=O)Nc3cc(F)cc4cccnc34)cn1)C2 | 5500 | –
Cc1cc(NC(=O)CNCCN2CCN(C)CC2)c2ncccc2c1 | > 30000 | –
Cc1cc(NC(=O)c2cnc(N3CCN(C(=O)C4CC4)CC3)cn2)c2ncccc2c1 | 1200 | –
O=C(Nc1cc(F)cc2cccnc12)c1cnc(N2CC3CC2CN3)cn1 (configuration not stated) | 9400 | –
O=C(Nc1cc(F)cc2cccnc12)c1cnc(N2CC3CC2CS3(=O)=O)cn1 (configuration not stated) | 1400 | –
CN1C2CCC1CN(c1cnc(C(=O)Nc3cc(F)cc4cccnc34)cn1)C2 | 400 | half-life [2]: > 60 min; half-life [3]: 13.5 min
Cc1cc(NC(=O)c2cnc(N3CCNCC3)cn2)c2ncccc2c1 | 900 | half-life [3]: 4 min
NC1CCC2(CC1)CN(c1cnc(C(=O)Nc3cc(F)cc4cccnc34)cn1)C2 | 4700 | –
CCN(CC)C1CCN(c2cnc(C(=O)Nc3cc(F)cc4cccnc34)cn2)CC1 | 500 | –
CCN(CC)C(=S)SSC(=S)N(CC)CC [DISULFIRAM] | 100 | IC50 (PANC-1): 100 nM; Activity (HCT-116): Active; IC50 [4]: 200 nM; IC50 (Panc02): 100 nM; IC50 (BXPC-3): 300 nM; IC50 (SU.86.86): 300 nM
Cc1cc(C(=O)Nc2ccc(N3CCN(C)CC3)nc2)c2ncccc2c1 | 21500 | –
CN(C)C/C=C/C(=O)N1CCN(c2cnc(C(=O)Nc3cc(F)cc4cccnc34)cn2)CC1 | 4400 | –
O=C(Nc1cc(F)cc2cccnc12)c1cnc(N2CCC(O)(C(F)(F)F)CC2)cn1 | 2100 | –
O=C(Nc1cc(F)cc2cccnc12)c1cnc(N2CCOCC2)cn1 | 1000 | –
N[C@@H]1CCN(c2cnc(C(=O)Nc3cc(F)cc4cccnc34)cn2)C[C@@H]1F | 1100 | –
CS(=O)(=O)N1CCN(c2cnc(C(=O)Nc3cc(F)cc4cccnc34)cn2)CC1 | 3300 | –
Cc1cc(NC(=O)c2ccc(N3CCN(C)CC3)cc2)c2ncccc2c1 | 25800 | –
CN1CNC(=O)C12CCN(c1cnc(C(=O)Nc3cc(F)cc4cccnc34)cn1)CC2 | 2900 | –

Compound | IC50 (MIA PaCa-2 [1]) [nM] | also measured
N[C@@H]1CCCC12CCN(c1cnc(C(=O)Nc3cc(F)cc4cccnc34)cn1)CC2 | 1500 | –
Cc1cc(NCc2cnc(N3CCNCC3)cn2)c2ncccc2c1 | 17600 | –
O=C(Nc1cc(F)cc2cccnc12)c1cnc(N2CCNC3(CC3)C2)cn1 | 800 | –
O=C(Nc1cc(F)cc2cccnc12)c1cnc(N2CCC(F)C2)cn1 (configuration not stated) | 2800 | –
N[C@@H]1CN(c2cnc(C(=O)Nc3cc(F)cc4cccnc34)cn2)CC12COC2 | 11600 | –
O=C(Nc1cc(F)cc2cccnc12)c1cnc(N2CCNC(F)C2)cn1 (configuration not stated) | 3400 | –
CN(NC(=O)CC(=O)NN(C)C(=S)c1ccccc1)C(=S)c1ccccc1 [ELESCLOMOL] | 20 | IC50 (PANC-1): 30 nM; IC50 [4]: 200 nM; Activity (MIA PaCa-2 [5]): Active; IC50 (Panc02): 10 nM; IC50 (BXPC-3): 50 nM; IC50 (SU.86.86): 20 nM
C[C@@H]1CN(c2cnc(C(=O)Nc3cc(F)cc4cccnc34)cn2)C[C@H](C)N1 | 300 | –
NC1C2CCC1CN(c1cnc(C(=O)Nc3cc(F)cc4cccnc34)cn1)C2 (configuration not stated) | 800 | Activity [6]: Non-toxic; half-life [2]: > 60 min; half-life [3]: > 60 min
O=C(Nc1cc(F)cc2cccnc12)c1cnc(N2CCn3cnnc3C2)cn1 | > 30000 | –
N[C@H]1CN(c2cnc(C(=O)Nc3cc(F)cc4cccnc34)cn2)C[C@H]1F | 300 | half-life [2]: > 60 min; half-life [3]: > 60 min
O=C(Nc1cc(F)cc2cccnc12)c1cnc(N2CCC(O)C2)cn1 (configuration not stated) | 1000 | –
NC1CCCN(c2cnc(C(=O)Nc3cc(F)cc4cccnc34)cn2)C1 (configuration not stated) | 1800 | –
CN1CC2CC1CN2c1cnc(C(=O)Nc2cc(F)cc3cccnc23)cn1 (configuration not stated) | 100 | half-life [2]: > 60 min; Retention_time [7]: 6.22 min; Retention_time [8]: 6.23 min; half-life [3]: 10.5 min; Retention_time [9]: 6.23 min; Retention_time [10]: 6.19 min; Retention_time [11]: 6.44 min; Retention_time [12]: 6.22 min
O=C(Nc1cc(F)cc2cccnc12)c1cnc(N2CCC(F)(F)CC2)cn1 | 3700 | –
CC1(N)CN(c2cnc(C(=O)Nc3cc(F)cc4cccnc34)cn2)C1 | 2100 | –
C[C@@H]1CNCCN1c1cnc(C(=O)Nc2cc(F)cc3cccnc23)cn1 | 400 | –
O=C(Nc1cc(F)cc2cccnc12)c1cnc(N2CCN3CCCC3C2)cn1 (configuration not stated) | 1700 | –
CN1CCN(c2cnc(C(=O)Nc3cc(F)cc4cccnc34)cn2)CC1 | 700 | –
O=C(Nc1cc(F)cc2cccnc12)c1cnc(N2CCC(N3CCCC3)CC2)cn1 | 500 | –
C=CC(=O)N1CCN(c2cnc(C(=O)Nc3cc(C)cc4cccnc34)cn2)CC1 | 900 | half-life [3]: 3 min
Cc1cc(NC(=O)c2cnc(N3CCN(S(C)(=O)=O)CC3)cn2)c2ncccc2c1 | 1000 | –
CC1(C)CN(c2cnc(C(=O)Nc3cc(F)cc4cccnc34)cn2)CCN1 | 300 | –
CC1CNCCCN1c1cnc(C(=O)Nc2cc(F)cc3cccnc23)cn1 (configuration not stated) | 1100 | –
Cc1cc(NC(=O)c2cnc(N3CCC4(CC3)CO[C@@H](C)[C@H]4N)cn2)c2ncccc2c1 | 1000 | half-life [3]: 11.7 min
C[C@@H]1CN(c2cnc(C(=O)Nc3cc(F)cc4cccnc34)cn2)CCN1 | 500 | –
O=C(Nc1cccc2ccccc12)c1cnc(N2CCNCC2)cn1 | > 30000 | –
